In test [1] the target is T1, hGPR40 (Homo sapiens, UniProt O14842). The test is described as follows: GPR40 IP-One HTRF assay in HEK293/GPR40 inducible cell lines (hGPR40 IP1 EC50). Format: cell-based. More on the design: expressed in transfected cells. As to conditions: HEK293 cells with tetracycline-inducible human GPR40, IP-One HTRF. The protocol:
GPR40 IP-One HTRF Assays in HEK293/GPR40 Inducible Cell Lines
Human, mouse and rat GPR40-mediated intracellular IP-One HTRF assays were established using human embryonic kidney HEK293 cells stably transfected with a tetracycline-inducible human, mouse or rat GPR40 receptor. Cells were routinely cultured in growth medium containing DMEM (Gibco Cat. #12430-047), 10% qualified FBS (Sigma, Cat. #F2442), 200 μg/mL hygromycin (Invitrogen, Cat. #16087-010) and 1.5 μg/mL blasticidin (Invitrogen, Cat. #R210-01). About 12-15 million cells were passed into a T175 tissue culture flask (BD Falcon 353112) with growth medium and incubated for 16-18 hours (overnight) at 37° C. with 5% CO2. The next day, assay medium was exchanged with growth medium containing 1000 ng/mL of tetracycline (Fluka Analytical, Cat. #87128) to induce GPR40 expression for 18-24 hours at 37° C. incubator with 5% CO2. After induction, the cells were washed with PBS (Gibco, Cat. #14190-036) and detached with Cell Stripper (Cellgro, Cat. #25-056-CL). 10-20 mL growth medium were added to the flask and cells were collected in 50 mL tubes (Falcon, Cat. #352098) and spun at 1000 RPM for 5 minutes. Culture medium was aspirated and the cells were resuspended in 10 mL of 1× IP-One Stimulation Buffer from the Cisbio IP-One kit (Cisbio, Cat. #62IPAPEJ). The cells were diluted to 1.4×10^6 cells/mL in Stimulation Buffer.
Test compounds were 3-fold, 11-point serially diluted in DMSO in a REMP assay plate (Matrix Cat. #4307) by Biocel (Agilent). The compounds were transferred into an Echo plate (Labcyte, Cat. #LP-0200) and 20 nL of diluted compounds were transferred to an assay plate (proxi-plate from Perkin Elmer, Cat. #6008289) by Echo acoustic nano dispenser (Labcyte, model ECHO550). 14 μL of the diluted cells were then added to the assay plate by Thermo (SN 836 330) Combi Drop and incubated at room temperature for 45 minutes. Then 3 μL of IP1 coupled to dye D2 from the Cisbio IP-One kit were added to the assay plate followed by 3 μL of Lumi4-Tb cryptate K from the kit. The plate was further incubated at room for 1 hour before reading on the Envision (Perkin Elmer Mode12101) with an HTRF protocol. Activation data for the test compound over a range of concentrations was plotted as percentage activation of the test compound (100%=maximum response). After correcting for background [(sample read-mean of low control)/(mean of high control-mean of low control)](low control is DMSO without any compound), EC50 values were determined. […] The maximal Y value observed (% Ymax) was calculated relative to a BMS standard reference compound at a final concentration of 0.625 μM.

Test [2] concerns the target T1, hGPR40. The experiment in a line: FDSS-based intracellular calcium assay (hGPR40 EC50). It counts as cell-based. On the set-up: 3xFLAG; expressed in transfected cells. Conditions: cells expressing GPR40, intracellular Ca2+ response, FDSS reader. The protocol:
FDSS-Based Intracellular Calcium Assay
Cell lines expressing GPR40 are generated using the pDEST-3×FLAG gene expression system and are cultured in culture medium comprising the following components: F12 (Gibco #11765), 10% lipid deprived fetal bovine serum, 250 μg/mL zeocin and 500 μg/mL G418. To conduct the fluorescent imaging plate reader (FLIPR)-based calcium flux assay to measure intracellular Ca^2+ response, cells expressing GPR40 are plated on 384 well plates (BD Biocoat #356697) at a density of 20,000 cells/20 μL medium per well in phenol red and serum-free DMEM (Gibco #21063-029) and incubated overnight. Using BD kit #s 80500-310 or -301, the cells are incubated with 20 μL per well of Hank's buffered salt solution with 1.7 mM probenecid and Fluo-3 at 37° C. for 30 min. Compounds are dissolved in DMSO and diluted to desired concentrations with assay buffer and added to the cells as 3× solution (20 μL per well). Run fluorescence/luminescence reader FDSS (Hamamatsu) to read intracellular Ca^2+ response.

T1 sequence (O14842 whole entry): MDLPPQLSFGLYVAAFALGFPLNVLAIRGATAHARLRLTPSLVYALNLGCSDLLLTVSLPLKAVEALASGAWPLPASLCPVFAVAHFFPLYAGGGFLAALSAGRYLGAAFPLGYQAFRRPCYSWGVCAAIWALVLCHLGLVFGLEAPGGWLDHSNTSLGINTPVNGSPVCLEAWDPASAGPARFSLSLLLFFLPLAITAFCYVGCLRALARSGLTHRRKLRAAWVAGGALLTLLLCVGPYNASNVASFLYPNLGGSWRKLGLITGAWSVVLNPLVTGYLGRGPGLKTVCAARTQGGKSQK

For `COc1cc(N2CC[C@@H](Oc3cnc(N4C[C@H](OC)[C@@H](C)[C@@H]4CC(=O)O)cn3)[C@H](C)C2)c(Cl)cn1` [Example 1, 2-((2S,3S,4R)-1-(5-((3R,4R)-1-(5-Chloro-2-methoxypyridin-4-yl)-3-methylpiperidin-4-yloxy)pyrazin-2-yl)-4-methoxy-3-methylpyrrolidin-2-yl)acetic acid], the values for the concentration for a half-maximal effect (EC50) at hGPR40 [1] and at hGPR40 [2] were 14 nM and 72 nM, respectively.

Turning to `COCCCO[C@H]1CN(c2cnc(O[C@@H]3CCN(c4cc(OC)ncc4Cl)C[C@H]3C)cn2)[C@@H](CC(=O)O)[C@@H]1C` [Example 2, 2-((2S,3S,4R)-1-(5-((3R,4R)-1-(5-Chloro-2-methoxypyridin-4-yl)-3-methylpiperidin-4-yloxy)pyrazin-2-yl)-4-(3-methoxypropoxy)-3-methylpyrrolidin-2-yl)acetic acid], the EC50 at hGPR40 [1] was 4 nM; at hGPR40 [2] it was 43 nM.

As for `CCOc1ccc(F)c(N2CC[C@@H](Oc3cnc(N4C[C@H](OC)[C@@H](C)[C@@H]4CC(=O)O)cn3)[C@H](C)C2)c1` [Example 3, 2-((2S,3S,4R)-1-(5-((3R,4R)-1-(5-Ethoxy-2-fluorophenyl)-3-methylpiperidin-4-yloxy)pyrazin-2-yl)-4-methoxy-3-methylpyrrolidin-2-yl)acetic acid], the EC50 at hGPR40 [1] was found to be 21 nM; on hGPR40 [2] it was 42 nM.

As for `CCOc1ccc(F)c(N2CC[C@@H](Oc3cnc(N4C[C@H](OCCCOC)[C@@H](C)[C@@H]4CC(=O)O)cn3)[C@H](C)C2)c1` [Example 4, 2-((2S,3S,4R)-1-(5-((3R,4R)-1-(5-Ethoxy-2-fluorophenyl)-3-methylpiperidin-4-yloxy)pyrazin-2-yl)-4-(3-methoxypropoxy)-3-methylpyrrolidin-2-yl)acetic acid], the EC50 at hGPR40 [2] was determined as 45 nM.

As for `CCOc1ccc(F)c(N2CC[C@@H](Oc3cnc(N4CC(OCCCOC)C(C)C4CC(=O)O)cn3)[C@H](C)C2)c1` (stereo partly drawn) [Example 5, 2-(1-(5-(((3R,4R)-1-(5-Ethoxy-2-fluorophenyl)-3-methylpiperidin-4-yl)oxy)pyrazin-2-yl)-4-(3-methoxypropoxy)-3-methylpyrrolidin-2-yl)acetic acid], the EC50 at hGPR40 [2] is 837 nM.

As to `COc1cc(N2CC[C@@H](Oc3cnc(N4C[C@H](OC)C[C@@H]4CC(=O)O)cn3)[C@H](C)C2)c(Cl)cn1` [Example 6, 2-((2R,4R)-1-(5-((3R,4R)-1-(5-Chloro-2-methoxypyridin-4-yl)-3-methylpiperidin-4-yloxy)pyrazin-2-yl)-4-methoxypyrrolidin-2-yl)acetic acid], the half-maximal effective concentration (EC50) at hGPR40 [1] was 44 nM; at hGPR40 [2] it was 150 nM.

In the case of `COc1cc(N2CC[C@@H](Oc3cnc(N4C[C@H](OC)C[C@H]4CC(=O)O)cn3)[C@H](C)C2)c(Cl)cn1` [Example 7, 2-((2S,4R)-1-(5-((3R,4R)-1-(5-Chloro-2-methoxypyridin-4-yl)-3-methylpiperidin-4-yloxy)pyrazin-2-yl)-4-methoxypyrrolidin-2-yl)acetic acid], the EC50 at hGPR40 [2] is 3230 nM.

As to `COc1cc(N2CC[C@@H](Oc3cnc(N4C[C@H](C(F)(F)F)C[C@H]4CC(=O)O)cn3)[C@H](C)C2)c(Cl)cn1` [Example 8, 2-((2S,4R)-1-(5-((3R,4R)-1-(5-Chloro-2-methoxypyridin-4-yl)-3-methylpiperidin-4-yloxy)pyrazin-2-yl)-4-(trifluoromethyl)pyrrolidin-2-yl)acetic acid], the EC50 at hGPR40 [2] came out at 955 nM.

Turning to `COc1cc(N2CC[C@@H](Oc3cnc(N4C[C@H](C(F)(F)F)C[C@@H]4CC(=O)O)cn3)[C@H](C)C2)c(Cl)cn1` [Example 9, 2-((2R,4R)-1-(5-((3R,4R)-1-(5-Chloro-2-methoxypyridin-4-yl)-3-methylpiperidin-4-yloxy)pyrazin-2-yl)-4-(trifluoromethyl)pyrrolidin-2-yl)acetic acid], the concentration giving a half-maximal response (EC50) at hGPR40 [2] worked out at 84 nM.

These data come from patent publication US10017497B2, “Pyrrolidine GPR40 modulators for the treatment of diseases such as diabetes” (BRISTOL-MYERS SQUIBB COMPANY, priority 2014, dated 2018).
